Experimental data reported in US7371536B2, “Methods for transporting vitamin C” (priority 1999, dated 2008).

Biological target: T1, human SVCT1 (Homo sapiens, UniProt Q9UHI7)
T1 construct: expressed in transfected cells; host or cells: Xenopus laevis oocytes injected with cRNA (vector pTLN2)
Experiment: L-[14C]ascorbic acid radiotracer uptake in Xenopus oocytes expressing human SVCT1
Type: cell-based
Details: not given
Protocol: Functional characterization in Xenopus oocytes—SVCT1 and SVCT2 cDNAs were subcloned into the pTLN2 vector (to improve functional expression in oocytes) and used for cRNA synthesis in vitro using the MEGAscript kit and T7 RNA polymerase (from Ambion). Oocytes were isolated from Xenopus laevis, treated with collagenase A and maintained at 18° C. in modified Barths' medium. Oocytes were injected with 15 ng SVCT1 or SVCT2 cRNA or water only. The radiotracer uptake and voltage-clamp experiments described below were conducted 2-5 days post-injection in standard medium of composition 100 mM NaCl, 2 mM KCl, 1 mM CaCl2, 1 mM MgCl2, and 10 mM HEPES (buffered to pH 7.5 with Tris base). For low-Na^+ or Na^+-free media, NaCl was replaced with choline chloride. For pH-dependence experiments, Na^+ media were buffered to between pH 5.5 and pH 8.0 using 0-5 mM MES, 0-5 mM HEPES and 0-5 mM Tris base. L-Ascorbic acid-containing solutions were always freshly prepared and used immediately. […] Oocytes were solubilized with 10% SDS and carbon-14 content measured by liquid scintillation counting. A two-microelectrode voltage-clamp was used to measure currents associated with SVCT1 expressed in oocytes. Oocytes were superfused at 22° C. in standard Na^+ medium and clamped at −50 mV. Current was continuously monitored by sampling at 1 Hz. Test solutions were always washed out with substrate-free, Na^+-free medium at pH 7.5 for several minutes. Once again, saturation kinetics data were fit to a modified Hill equation in which I and Imax were replaced by uptake V and maximal velocity Vmax for analysis of radiotracer uptake data.

T1 sequence (Q9UHI7 whole entry): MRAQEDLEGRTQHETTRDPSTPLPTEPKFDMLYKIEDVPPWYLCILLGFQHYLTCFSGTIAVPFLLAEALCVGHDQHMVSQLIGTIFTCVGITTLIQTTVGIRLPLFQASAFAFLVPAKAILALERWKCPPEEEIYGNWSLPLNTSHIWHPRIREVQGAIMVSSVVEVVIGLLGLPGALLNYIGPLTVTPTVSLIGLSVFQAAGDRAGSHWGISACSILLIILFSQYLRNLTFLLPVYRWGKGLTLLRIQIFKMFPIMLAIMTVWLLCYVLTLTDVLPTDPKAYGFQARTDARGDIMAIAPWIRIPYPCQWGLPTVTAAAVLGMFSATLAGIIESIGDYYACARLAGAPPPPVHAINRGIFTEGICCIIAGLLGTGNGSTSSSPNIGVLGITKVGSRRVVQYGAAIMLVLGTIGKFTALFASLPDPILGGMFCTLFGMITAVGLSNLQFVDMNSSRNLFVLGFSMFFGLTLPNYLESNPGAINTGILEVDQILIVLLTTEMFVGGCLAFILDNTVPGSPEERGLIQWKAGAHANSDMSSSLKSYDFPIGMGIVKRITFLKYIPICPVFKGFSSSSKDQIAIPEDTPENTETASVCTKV

SMILES | ability to substitute for Na^+ in driving SVCT1-mediated transport
[Li+] [Li^+] | unable to substitute for Na^+

Same assay, conditions: L-ascorbic acid uptake

SMILES | K0.5 for Na^+ [mM]
[Na+] [Na^+] | 15 to 25

Same assay, conditions: data not shown

SMILES | inhibition of L-[14C]ascorbic acid uptake (in words) | inhibition of L-[14C]ascorbic acid uptake
O=CC[C@@H](O)[C@H](O)[C@H](O)CO [2-deoxy-D-glucose] | not significantly inhibited | 
Nc1ncnc2c1ncn2C1CC(O)C(CO)O1 (centres unmarked) [2-deoxyadenosine] | none resulted in any significant inhibition | 
Nc1ncnc2c1ncn2[C@@H]1O[C@H](COP(=O)(O)OP(=O)(O)O)[C@@H](O)[C@H]1O [ADP] | none resulted in any significant inhibition | 
Nc1ncnc2c1ncn2[C@@H]1O[C@H](COP(=O)(O)O)[C@@H](O)[C@H]1O [AMP] | none resulted in any significant inhibition | 
Nc1ncnc2c1ncn2[C@@H]1O[C@H](COP(=O)(O)OP(=O)(O)OP(=O)(O)O)[C@@H](O)[C@H]1O [ATP] | none resulted in any significant inhibition | 
O=C(CO)[C@@H](O)[C@H](O)[C@H](O)CO [D-fructose] | not significantly inhibited | 
OC[C@@H](O)[C@@H](O)[C@H](O)[C@H](O)CO [D-mannitol] | not significantly inhibited | 
O=C[C@H](O)[C@H](O)[C@H](O)CO [D-ribose] | not significantly inhibited | 
Nc1nc2c(ncn2[C@@H]2O[C@H](COP(=O)(O)OP(=O)(O)OP(=O)(O)O)[C@@H](O)[C@H]2O)c(=O)[nH]1 [GTP] | none resulted in any significant inhibition | 
CCCCCCCCCCCCCCCC(=O)OC[C@H](O)[C@H]1OC(=O)C(O)=C1O [L-ascorbic acid-6-palmitate] |  | 20-30%
O=C[C@@H](O)[C@@H](O)[C@@H](O)CO [L-ribose] | not significantly inhibited | 
O=c1ccn([C@@H]2O[C@H](COP(=O)(O)OP(=O)(O)OP(=O)(O)O)[C@@H](O)[C@H]2O)c(=O)[nH]1 [UTP] | none resulted in any significant inhibition | 
Nc1ncnc2nc[nH]c12 [adenine] | none resulted in any significant inhibition | 
Nc1ncnc2c1ncn2[C@@H]1O[C@H](CO)[C@@H](O)[C@H]1O [adenosine] | none resulted in any significant inhibition | 
Nc1ncnc2c1ncn2[C@H]1C[C@H](O)[C@@H](COP(=O)(O)OP(=O)(O)OP(=O)(O)O)O1 [dATP] | none resulted in any significant inhibition | 
Nc1ccn([C@H]2C[C@H](O)[C@@H](COP(=O)(O)OP(=O)(O)OP(=O)(O)O)O2)c(=O)n1 [dCTP] | none resulted in any significant inhibition | 
Nc1nc2c(ncn2[C@H]2C[C@H](O)[C@@H](COP(=O)(O)OP(=O)(O)OP(=O)(O)O)O2)c(=O)[nH]1 [dGTP] | none resulted in any significant inhibition | 
Cc1cn([C@H]2C[C@H](O)[C@@H](COP(=O)(O)OP(=O)(O)OP(=O)(O)O)O2)c(=O)[nH]c1=O [dTTP] | none resulted in any significant inhibition | 
Nc1nc2c(ncn2[C@@H]2O[C@H](CO)[C@@H](O)[C@H]2O)c(=O)[nH]1 [guanosine] | none resulted in any significant inhibition | 
OC[C@H]1O[C@@H](n2cnc3c(O)ncnc32)[C@H](O)[C@@H]1O [inosine] | none resulted in any significant inhibition | 
CC(O)C(=O)O (centres unmarked) [lactic acid] | not significantly inhibited | 
O=C(O)C(=O)O [oxalic acid] | not significantly inhibited | 
O=C(O)CCC(=O)O [succinic acid] | not significantly inhibited | 
Cc1c[nH]c(=O)[nH]c1=O [thymine] | none resulted in any significant inhibition | 
O=c1cc[nH]c(=O)[nH]1 [uracil] | none resulted in any significant inhibition | 
O=c1[nH]c(=O)c2[nH]c(=O)[nH]c2[nH]1 [uric acid] | not significantly inhibited | 
O=c1ccn([C@@H]2O[C@H](CO)[C@@H](O)[C@H]2O)c(=O)[nH]1 [uridine] | none resulted in any significant inhibition | 

Biological target: T2, rat SVCT1 (Rattus norvegicus, UniProt Q9WTW7)
T2 construct: expressed in transfected cells; host or cells: Xenopus laevis oocytes injected with cRNA
T2 sequence (Q9WTW7 whole entry): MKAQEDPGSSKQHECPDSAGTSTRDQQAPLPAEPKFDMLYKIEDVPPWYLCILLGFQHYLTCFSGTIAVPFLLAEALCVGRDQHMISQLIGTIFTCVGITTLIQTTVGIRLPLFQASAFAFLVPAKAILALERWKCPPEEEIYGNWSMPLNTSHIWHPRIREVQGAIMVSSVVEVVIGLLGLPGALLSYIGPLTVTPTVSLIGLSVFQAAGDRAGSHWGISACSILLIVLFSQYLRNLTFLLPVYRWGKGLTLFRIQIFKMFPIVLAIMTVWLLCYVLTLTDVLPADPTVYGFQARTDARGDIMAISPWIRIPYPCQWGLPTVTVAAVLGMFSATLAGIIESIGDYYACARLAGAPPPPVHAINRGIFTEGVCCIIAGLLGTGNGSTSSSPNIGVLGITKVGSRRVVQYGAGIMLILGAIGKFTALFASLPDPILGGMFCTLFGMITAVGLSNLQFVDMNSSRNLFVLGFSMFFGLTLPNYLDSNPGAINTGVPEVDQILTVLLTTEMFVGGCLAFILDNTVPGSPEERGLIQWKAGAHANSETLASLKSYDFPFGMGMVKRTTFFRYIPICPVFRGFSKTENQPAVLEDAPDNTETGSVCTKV
Experiment: Two-microelectrode voltage-clamp of Xenopus oocytes expressing rat SVCT1
Type: cell-based
Details: at 200 μM L-ascorbic acid, −50 mV
Protocol: Rat SVCT1 and SVCT2 clones were obtained by isolating SVCT1 cDNA from rat kidney by expression cloning as described in Hediger et al., Methods Enzymol. 296:17-52 (1998). The SVCT2 cDNA was subsequently isolated by PCR-based homology screening of a rat brain cDNA library. […] Radiotracer and voltage-clamp experiments were performed (at 22° C.) in Xenopus oocytes two to seven days after injection with ˜25 ng of SVCT1 or SVCT2 cRNA synthesized in vitro. Radiotracer uptake was determined by incubating 6-10 oocytes for 30 or 60 min in standard 100 mM Na^+ or Na^+-free media with 10-600 μM L-[^14C]ascorbic acid.
Functional characterization of SVCT1 and SVCT2 in Xenopus oocytes—Oocytes were isolated from Xenopus laevis (under 2-aminoethylbenzoate anaesthesia), treated with collagenase A and stored at 18° C. in modified Barths' medium. Oocytes were injected with ≈25 ng of SVCT1 or SVCT2 cRNA synthesized in vitro, or water only (control), and incubated 2-7 days before radiotracer or voltage-clamp experiments were performed. Standard Na^+ uptake medium comprised 100 mM NaCl, 2 mM KCl, 1 mM CaCl2, 1 mM MgCl2, 10 mM HEPES (pH 7.5 with Tris base). For Na^+-free or low-Na^+ media, NaCl was replaced by equimolar choline chloride; likewise, Cl^− was replaced by gluconate for Cl^−-free medium. For pH-sensitivity experiments, Na^+ media were buffered at pH 5.5-8.0 using 0-5 mM MES, 0-5 mM HEPES and 0-5 mM Tris base. L-Ascorbic acid-containing solutions were freshly-prepared (without dithiothreitol) and used immediately.
Radiotracer uptake was determined by incubating 6-10 oocytes for 30 or 60 min in standard Na^+ or Na^+-free media (at 22° C.) with 10-600 μM L-[1-^14C]ascorbic acid (final specific activity 0.3 GBq/mmol). Oocytes were solubilized with 10% SDS and [^14C]-content was measured by liquid scintillation counting. A two-microelectrode voltage-clamp was used to measure currents in control oocytes and oocytes injected with rat SVCT1 or rat SVCT2 cRNA. Microelectrodes (resistance 0.5-5 MΩ) were filled with 3 M KCl. Oocytes were superfused at 22° C. in standard Na^+ medium and clamped at a holding potential (Vh) of −50 mV. For continuous current monitoring at Vh=−50 mV, the current was low-pass filtered at 20 Hz (sampling at 1 Hz). Additionally, step-changes in membrane potential (Vm) were applied (from +50 mV to −150 mV in 20-mV increments), each for a duration of 100 ms, before and after the addition of substrate; current was low-pass filtered at 500 Hz and digitized at 5 kHz. Test solutions were always washed out with substrate-free medium (100 mM choline chloride) at pH 7.5 for several minutes. Steady-state data (obtained by averaging the points over the final 16.7 ms at each Vm step when step-changes were applied) were fitted to equation (1) below, for which I is the evoked current (i.e., the difference in steady-state current measured in the presence and absence of substrate), Imax the derived current maximum, S the concentration of substrate S (Na^+ or L-ascorbic acid),
[formula] the substrate concentration at which current was half-maximal, and nH the Hill coefficient for S. (For radiotracer experiments, I was replaced with velocity V and Imax replaced with the derived maximal velocity, Vmax.)

SMILES | K0.5 for Na^+ (concentration at which current was half-maximal) [mM]
[Na+] [Na^+] | 40

Same assay, conditions: evoked currents, −50 mV

SMILES | Hill coefficient (nH)
[Na+] [Na^+] | ≈ 2

Same assay, conditions: oocytes expressing SVCT1

SMILES | evoked current / substrate selectivity (in words)
O=C1O[C@H]([C@@H](O)CO)[C@H](O)[C@@H]1O [L-gulono-γ-lactone] | excluded
O=c1cc[nH]c(=O)[nH]1 [uracil] | excluded

Same assay, conditions: substrate selectivity, FIG. 4F

SMILES | evoked current relative to that for L-ascorbic acid
O=C1O[C@H]([C@H](O)CO)C(O)=C1O [D-isoascorbic acid] | ≈ 30%

Biological target: T1, human SVCT1
Experiment: Two-microelectrode voltage-clamp of Xenopus oocytes expressing human SVCT1
Type: cell-based
Details: 500 μM, −50 mV
Protocol: Functional characterization in Xenopus oocytes—SVCT1 and SVCT2 cDNAs were subcloned into the pTLN2 vector (to improve functional expression in oocytes) and used for cRNA synthesis in vitro using the MEGAscript kit and T7 RNA polymerase (from Ambion). Oocytes were isolated from Xenopus laevis, treated with collagenase A and maintained at 18° C. in modified Barths' medium. Oocytes were injected with 15 ng SVCT1 or SVCT2 cRNA or water only. The radiotracer uptake and voltage-clamp experiments described below were conducted 2-5 days post-injection in standard medium of composition 100 mM NaCl, 2 mM KCl, 1 mM CaCl2, 1 mM MgCl2, and 10 mM HEPES (buffered to pH 7.5 with Tris base). For low-Na^+ or Na^+-free media, NaCl was replaced with choline chloride. For pH-dependence experiments, Na^+ media were buffered to between pH 5.5 and pH 8.0 using 0-5 mM MES, 0-5 mM HEPES and 0-5 mM Tris base. L-Ascorbic acid-containing solutions were always freshly prepared and used immediately. Radiotracer uptake was determined by incubating 8-12 oocytes for 30 min (within the time-course of linear uptake) in standard Na^+, low-Na^+ or Na^+-free media with 10-500 μM L-[1-^14C]ascorbic acid (final specific activity ≈0.3 GBq/mmol). Oocytes were solubilized with 10% SDS and carbon-14 content measured by liquid scintillation counting. A two-microelectrode voltage-clamp was used to measure currents associated with SVCT1 expressed in oocytes. Oocytes were superfused at 22° C. in standard Na^+ medium and clamped at −50 mV. Current was continuously monitored by sampling at 1 Hz. Test solutions were always washed out with substrate-free, Na^+-free medium at pH 7.5 for several minutes. Once again, saturation kinetics data were fit to a modified Hill equation in which I and Imax were replaced by uptake V and maximal velocity Vmax for analysis of radiotracer uptake data.

SMILES | transport / substrate selectivity (in words)
O=C1O[C@H]([C@@H](O)CO)C(O)=C1OP(=O)(O)O [L-ascorbic acid-2-phosphate] | barely transported
O=C1O[C@H]([C@@H](O)CO)[C@H](O)[C@@H]1O [L-gulono-γ-lactone] | excluded

Same assay, conditions: each at 500 μM, −50 mV

SMILES | evoked current relative to that of L-ascorbic acid
O=C1O[C@H]([C@H](O)CO)C(O)=C1O [D-isoascorbic acid] | about 15%

Same assay, conditions: −50 mV

SMILES | K0.5 based on evoked currents [mM]
O=C1O[C@H]([C@H](O)CO)C(O)=C1O [D-isoascorbic acid] | 2.7 ± 1.2
